This experiment addresses T1, SMO (Mus musculus, UniProt P56726).
T1 construct: endogenous in cells; host or cells: C3H10T1/2 (ATCC #CCL-226)
In words: Smoothened (SMO)/Sonic Hedgehog (SHh) Transient Transcriptional Activation Assay (Gli-luciferase reporter in C3H10T1/2 cells). In kind it is cell-based, murine. To be noted: C3H 10T1/2, 2 μM test compound, SHh 250 ng/ml, 20 hrs, read-out: SMO CELL % INHIBITION @ 2 μM. The method, boiled down:
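Luminescence (Dual-Glo) measured after 20 h co-exposure at 37 °C to 250 ng/ml human SHh and compound at 2 uM down to 2 nM final. Cells were C3H10T1/2 carrying a transfected murine 10× Gli response-element luciferase construct with pEGFP, starved 20 h in 0.5% calf serum beforehand.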

As a reminder, the inhibition is the change of the read-out against control, counted positive when it falls.

Each structure is given as a SMILES string. Where a name gives a salt, the structure may show the parent alone.

T1 sequence (P56726 33-793): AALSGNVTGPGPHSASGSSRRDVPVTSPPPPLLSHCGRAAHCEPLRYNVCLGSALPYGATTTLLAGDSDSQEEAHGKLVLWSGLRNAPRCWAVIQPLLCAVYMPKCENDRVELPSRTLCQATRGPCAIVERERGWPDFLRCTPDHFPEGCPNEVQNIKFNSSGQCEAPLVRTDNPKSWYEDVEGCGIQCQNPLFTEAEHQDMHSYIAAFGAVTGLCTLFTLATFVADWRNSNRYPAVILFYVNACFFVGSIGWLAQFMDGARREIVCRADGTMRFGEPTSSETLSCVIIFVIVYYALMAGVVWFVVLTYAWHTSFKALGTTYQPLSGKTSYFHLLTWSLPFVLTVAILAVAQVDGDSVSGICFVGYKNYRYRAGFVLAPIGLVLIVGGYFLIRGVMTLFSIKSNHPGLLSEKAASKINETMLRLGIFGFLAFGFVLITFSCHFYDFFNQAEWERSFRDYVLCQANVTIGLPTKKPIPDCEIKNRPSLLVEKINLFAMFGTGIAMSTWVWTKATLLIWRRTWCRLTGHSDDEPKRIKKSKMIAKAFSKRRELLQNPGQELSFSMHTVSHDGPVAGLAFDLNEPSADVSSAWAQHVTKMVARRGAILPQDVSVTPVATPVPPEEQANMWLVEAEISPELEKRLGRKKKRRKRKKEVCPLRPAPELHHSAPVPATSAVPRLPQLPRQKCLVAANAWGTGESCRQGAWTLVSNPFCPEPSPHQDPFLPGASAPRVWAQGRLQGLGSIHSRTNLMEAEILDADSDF

`COc1ccc(NC(=O)N[C@@H]2CCC[C@H](c3nc4ccccc4[nH]3)C2)cc1` [Example 232, 1-[(1R,3S)-3-(1H-benzimidazol-2-yl)cyclohexyl]-3-(4-methoxyphenyl) urea]: the inhibition at 2 µM amounted to 103%.
The figure for `Cc1noc(C)c1NC(=O)N[C@@H]1CCC[C@H](c2nc3ccccc3[nH]2)C1` [Example 233, 1-((1R,3S)-3-(1H-benzo[d]imidaz-ol-2-yl)cyclohexyl)-3-(3,5-dimethylisoxaz-ol-4-yl)urea] is 48%; for `O=C(Nc1ccc(Cl)cc1Cl)N[C@@H]1CCC[C@H](c2nc3ccccc3[nH]2)C1` [Example 234, 1-[(1R,3S)-3-(1H-benzimidazol-2-yl)cyclohexyl]-3-(2,4-dichlorophenyl) urea] it is 108%; for `COc1ccc(NC(=O)N[C@@H]2CCC[C@H](c3nc4ccccc4[nH]3)C2)c(C)c1` [Example 235, 1-[(1R,3S)-3-(1H-benzimidazol-2-yl)cyclohexyl]-3-(4-methoxy-2-methylphenyl) urea] it is 98%.
The figure for `CC(C)c1ccc(NC(=O)N[C@@H]2CCC[C@H](c3nc4ccccc4[nH]3)C2)cc1` [Example 236, 1-[(1R,3S)-3-(1H-benzimidazol-2-yl)cyclohexyl]-3-(4-isopropylphenyl) urea] is 108%; for `O=C(Nc1ccc(Cl)c(Cl)c1)N[C@@H]1CCC[C@H](c2nc3ccccc3[nH]2)C1` [Example 237] it is 111%.
The figure for `O=C(Nc1ccc(Cl)c(C(F)(F)F)c1)N[C@@H]1CCC[C@H](c2nc3ccccc3[nH]2)C1` [Example 238, 1-[(1R,3S)-3-(1H-benzimidazol-2-yl)cyclohexyl]-3-[4-chloro-3-(trifluoromethyl)phenyl]urea] is 114%; for `COc1ccc2[nH]c([C@@H]3CCC[C@H](NC(=O)c4ccc5c(c4)OCCO5)C3)nc2c1` [Example 239, N-((1S,3R)-3-(5-methoxy-1H-benzo[d]imidaz-ol-2-yl)cyclohexyl)-2,3-dihydrobenzo[b] [1,4]dioxine-6-carboxamide HCl] it is 23%.
On to `Cn1c([C@@H]2CCC[C@@H](NC(=O)c3ccc4c(c3)OCCO4)C2)nc2ccccc21` [Example 240, N-([1R,3R]-3-(1-methyl-1H-benzo[d]imidaz-ol-2-yl)cyclohexyl)-2,3-dihydrobenzo[b] [1,4]dioxine-6-carboxamide HCl], for which the inhibition at 2 µM was determined as 60%.
Then `O=C(N[C@@H]1CCC[C@@H](c2nc3ccccc3[nH]2)C1)c1ccc2c(c1)OCCO2` [Example 241], with 63%.
Then `O=C(N[C@@H]1CCC[C@H](c2nc3ccccc3[nH]2)C1)c1ccc2c(n1)OCCO2` [Example 242, N-((1R,3S)-3-(1H-benzo[d]imidaz-ol-2-yl)cyclohexyl)-2,3-dihydro-[1,4]dioxino[2,3-b]pyridine-6-carboxamide], with 86%.
Take `O=C(N[C@@H]1CCC[C@H](c2nc3ccccc3[nH]2)C1)c1cnc2c(c1)OCCO2` [Example 243, N-((1R,3S)-3-(1H-benzo[d]imidaz-ol-2-yl)cyclohexyl)-2,3-dihydro-[1,4]dioxino[2,3-b]pyridine-7-carboxamide]: the inhibition at 2 µM is 96%.
Then `Cn1c(C23CCCC(NC(=O)c4ccc5c(c4)OCCO5)(C2)C3)nc2ccccc21` [Example 244, N-(5-(1-methyl-1H-benzo[d]imidaz-ol-2-yl)bicyclo[3.1.1]heptan-1-yl)-2,3-dihydrobenzo[b] [1,4]dioxine-6-carboxamide], with 66%.
The figure for `COc1cc(OC)cc(C(=O)NC23CCCC(c4nc5ccccc5n4C)(C2)C3)c1` [Example 245, 3,5-dimethoxy-N-(5-(1-methyl-1H-benzo[d]imidaz-ol-2-yl)bicyclo[3.1.1]heptan-1-yl)benzamide] is 49%.
`O=C(N[C@H]1CCC[C@H](c2nc3ccccc3[nH]2)C1)c1cc(C2CC2)n[nH]1` [Example 246, N-(3-(1H-benzo[d]imidaz-ol-2-yl)cyclohexyl)-3-cyclopropyl-1H-pyrazole-5-carboxamide HCl]: the inhibition at 2 µM turned out to be 44%.
In the case of `O=C1CCc2cc(C(=O)N[C@H]3CCC[C@H](c4nc5ccccc5[nH]4)C3)ccc2N1` [Example 247, N-(3-(1H-benzo[d]imidaz-ol-2-yl)cyclohexyl)-2-oxo-1,2,3,4-tetrahydroquino-line-6-carboxamide HCl], the inhibition at 2 µM was found to be 98%.
The figure for `COc1ccc2cc(C(=O)N[C@H]3CCC[C@H](c4nc5ccccc5[nH]4)C3)n(C)c2c1` [Example 248, N-(3-(1H-benzo[d]imidaz-ol-2-yl)cyclohexyl)-6-methoxy-1-methyl-1H-indole-2-carboxamide HCl] is 74%.
The figure for `CN1C(=O)COc2ccc(C(=O)N[C@H]3CCC[C@H](c4nc5ccccc5[nH]4)C3)cc21` [Example 249, N-(3-(1H-benzo[d]imidaz-ol-2-yl)cyclohexyl)-4-methyl-3-oxo-3,4-dihydro-2H-benzo[d][1,4]ox-azine-6-carboxamide HCl] is 109%; for `Cn1c(C23CCCC(NC(=O)c4ccc5c(c4)OC(F)(F)O5)(C2)C3)nc2ccccc21` [Example 250, 2,2-difluoro-N-(5-(1-methyl-1H-benzo[d]imidaz-ol-2-yl)bicyclo[3.1.1]heptan-1-yl)benzo[d][1,3] dioxole-5-carboxamide] it is 94%.
In the case of `O=C(N[C@@H]1CCCC(c2nc3ccccc3[nH]2)C1)c1ccc2c(c1)OC(F)(F)O2` (stereo partly drawn) [Example 251, N-((1R,3S)-3-(1H-benzo[d]imidaz-ol-2-yl)cyclohexyl)-2,2-difluorobenzo[d] [1,3]dioxole-5-carboxamide], the inhibition at 2 µM came to 102%.
Then `COc1cc(OC)cc(C(=O)N[C@H]2CCC[C@H](c3nc4ccccc4[nH]3)C2)c1` [Example 252, N-(3-(1H-benzo[d]imidaz-ol-2-yl)cyclohexyl)-3,5-dimethoxybenz-amide HCl], with 46%.
Then `O=C(N[C@@H]1CCC[C@H](c2nc3ccccc3[nH]2)C1)c1cc2c(cn1)OCCO2` [Example 253, N-((1R,3S)-3-(1H-benzo[d]imidaz-ol-2-yl)cyclohexyl)-2,3-dihydro-[1,4]dioxino[2,3-c]pyridine-7-carboxamide], with 100%; and `COc1ccc2[nH]c([C@H]3CCC[C@H](NC(=O)c4ccc5c(c4)OCCO5)C3)nc2c1` [Example 254, N-(3-(5-methoxy-1H-benzo[d]imidaz-ol-2-yl)cyclohexyl)-2,3-dihydrobenzo[b] [1,4]dioxine-6-carboxamide HCl], with 91%.
Take `O=C(Nc1ccc(F)c(C(F)(F)F)c1)NC12CCCC(c3nc4ccccc4[nH]3)(C1)C2` [Example 255, 1-(5-(1H-benzo[d]imidaz-ol-2-yl)bicyclo[3.1.1]heptan-1-yl)-3-(4-fluoro-3-(trifluoromethyl)phenyl)urea HCL]: the inhibition at 2 µM was found to be 101%.
Turning to `N#Cc1ccc(NC(=O)NC23CCCC(c4nc5ccccc5[nH]4)(C2)C3)cc1` [Example 256, 1-(5-(1H-benzo[d]imidaz-ol-2-yl)bicyclo[3.1.1]heptan-1-yl)-3-(4-cyanophenyl)-urea HCl], the inhibition at 2 µM is 94%.

(Values after patent US20100029615A1, “BENZIMIDAZOLE DERIVATIVES” (priority 2006, published 2010).)
